From patent US11939314B2, “Quinolin-2-one derivatives” (MERCK PATENT GMBH, priority 2016, dated 2024)

What was measured:
[1] = molecular target: T1, c-Kit(V654A) (Homo sapiens, UniProt P10721, V654A); test: c-Kit(V654A) assay; assay type: biochemical; details: recombinant human c-Kit aa 544-end, 200 μM ATP, 1.4E-06 means 1.4×10^−6, read-out: Inhibition (IC50) of c-KIT (V654A)
T1 construct: amino acids 544-end containing the V654A mutation; GST (N)
In short: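 Radiometric filter-binding read-out: substrate 33P incorporation counted by scintillation after P30 filtermat washes in 75 mM phosphoric acid and methanol. Enzyme: N-GST recombinant human c-Kit aa 544-end carrying V654A.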

[2] = molecular target: T2, PDGFRalpha(V561D) (Homo sapiens, UniProt P16234, V561D); test: PDGFRalpha(V561D) assay; assay type: biochemical; details: recombinant human PDGFRalpha aa 550-end, 200 μM ATP, 1.4E-06 means 1.4×10^−6, read-out: Inhibition (IC50) of PDGFRα (V561D)
T2 construct: recombinant human PDGFRalpha, amino acids 550end containing the V561 D mutation; 6His (N)
In short: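 Radiometric filter-binding assay: substrate phosphorylation by recombinant N-His-tagged human PDGFRα 550-end V561D was quenched with 3% phosphoric acid after 40 min at room temperature, then counted.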

T2 sequence (P16234 550-1089 V561D): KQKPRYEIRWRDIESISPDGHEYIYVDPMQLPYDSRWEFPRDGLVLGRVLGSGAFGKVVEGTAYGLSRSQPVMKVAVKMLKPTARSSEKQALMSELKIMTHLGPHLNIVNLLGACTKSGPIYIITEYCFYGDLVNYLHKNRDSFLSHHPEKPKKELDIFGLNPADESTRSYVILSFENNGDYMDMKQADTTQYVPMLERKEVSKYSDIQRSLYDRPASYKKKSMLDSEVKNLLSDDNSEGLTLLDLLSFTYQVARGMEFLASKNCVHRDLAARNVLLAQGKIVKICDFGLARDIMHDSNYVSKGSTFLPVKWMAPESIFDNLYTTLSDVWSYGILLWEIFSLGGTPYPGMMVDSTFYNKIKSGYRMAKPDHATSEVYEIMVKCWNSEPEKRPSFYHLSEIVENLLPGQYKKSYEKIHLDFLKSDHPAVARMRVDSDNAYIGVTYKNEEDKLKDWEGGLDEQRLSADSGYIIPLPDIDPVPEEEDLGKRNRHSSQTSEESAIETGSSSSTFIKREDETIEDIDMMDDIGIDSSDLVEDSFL
T1 sequence (P10721 544-976 V654A): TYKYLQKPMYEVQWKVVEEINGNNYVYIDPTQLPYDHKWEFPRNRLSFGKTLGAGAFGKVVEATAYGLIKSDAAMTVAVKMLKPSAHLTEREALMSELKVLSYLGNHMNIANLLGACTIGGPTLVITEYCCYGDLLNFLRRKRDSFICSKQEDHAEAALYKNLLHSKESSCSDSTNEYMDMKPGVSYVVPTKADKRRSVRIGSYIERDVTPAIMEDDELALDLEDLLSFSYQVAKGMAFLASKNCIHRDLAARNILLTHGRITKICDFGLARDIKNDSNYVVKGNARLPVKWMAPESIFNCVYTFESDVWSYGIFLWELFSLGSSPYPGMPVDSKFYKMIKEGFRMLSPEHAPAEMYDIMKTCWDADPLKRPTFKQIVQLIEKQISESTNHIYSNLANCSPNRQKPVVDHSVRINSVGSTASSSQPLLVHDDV

SMILES	IC50 [1] [nM]	IC50 [2] [nM]
O=c1[nH]c2ncc(F)cc2cc1-c1cn(-c2ccc(N3CCCNCC3)cc2)nn1 [A124, 3-[1-(4-[1,4]diazepan-1-yl-phenyl)-1H-[1,2,3]triazol-4-yl]-6-fluoro-1H-[1,8]naphthyridin-2-one]	66	9
O=c1[nH]c2ccc(F)cc2cc1-c1cn(-c2ccc(S(=O)(=O)N3CCNCC3)cc2)nn1 [A129, 6-fluoro-3-{1-[4-(piperazine-1-sulfonyl)-phenyl]-1H-[1,2,3]triazol-4-yl}-1H-quinolin-2-one]	13	48
O=c1[nH]c2cc(F)c(F)cc2cc1-c1cn(-c2ccc(OCCN3CCNCC3)cc2)nn1 [A130, 6,7-difluoro-3-{1-[4-(2-piperazin-1-yl-ethoxy)-phenyl]-1H-[1,2,3]triazol-4-yl}-1H-quinolin-2-one]	35	170
O=c1[nH]c2ccc(F)cc2cc1-c1cn(-c2ccc(OCCCN3CCNCC3)cc2)nn1 [A131, 6-fluoro-3-{1-[4-(3-piperazin-1-yl-propoxy)-phenyl]-1H-[1,2,3]triazol-4-yl}-1H-quinolin-2-one]	9.7	38
O=C(c1ccc(-n2cc(-c3cc4cc(F)ccc4[nH]c3=O)nn2)cc1)C1CCNCC1 [A132, 6-fluoro-3-{1-[4-(piperidine-4-carbonyl)-phenyl]-1H-[1,2,3]triazol-4-yl}-1H-quinolin-2-one]	7.5	0.8
O=c1[nH]c2ccc(F)cc2cc1-c1cn(-c2ccc(OCCC3CCNCC3)cc2)nn1 [A133, 6-fluoro-3-{1-[4-(2-piperidin-4-yl-ethoxy)-phenyl]-1H-[1,2,3]triazol-4-yl}-1H-quinolin-2-one]	11	6.4
O=c1[nH]c2cc(F)c(F)cc2cc1-c1cn(-c2ccc(OCCC3CCNCC3)cc2)nn1 [A134, 6,7-difluoro-3-{1-[4-(2-piperidin-4-yl-ethoxy)-phenyl]-1H-[1,2,3]triazol-4-yl}-1H-quinolin-2-one]	17	16
O=c1[nH]c2cc(F)c(F)cc2cc1-c1cn(-c2ccc(OCCCN3CCNCC3)cc2)nn1 [A135, 6,7-difluoro-3-{1-[4-(3-piperazin-1-yl-propoxy)-phenyl]-1H-[1,2,3]triazol-4-yl}-1H-quinolin-2-one]	180	310
O=C(c1ccc(-n2cc(-c3cc4cc(F)c(F)cc4[nH]c3=O)nn2)cc1)C1CCNCC1 [A136, 6,7-difluoro-3-{1-[4-(piperidine-4-carbonyl)-phenyl]-1H-[1,2,3]triazol-4-yl}-1H-quinolin-2-one]	15	18
O=C(Cn1ccc2cc(-n3cc(-c4cc5c(F)cc(F)cc5[nH]c4=O)nn3)ccc21)N1CCNCC1 [A138, 5,7-difluoro-3-{1-[1-(2-oxo-2-piperazin-1-yl-ethyl)-1H-indol-5-yl]-1H-[1,2,3]triazol-4-yl}-1H-quinolin-2-one]	11	86
O=C(Cn1ccc2cc(-n3cc(-c4cc5cc(F)c(F)cc5[nH]c4=O)nn3)ccc21)N1CCNCC1 [A139, 6,7-difluoro-3-{1-[1-(2-oxo-2-piperazin-1-yl-ethyl)-1H-indol-5-yl]-1H-[1,2,3]triazol-4-yl}-1H-quinolin-2-one]	12	3800
O=C(COc1ccc(-n2cc(-c3cc4cc(F)ccc4[nH]c3=O)nn2)cc1)N1CCNCC1 [A141, 6-fluoro-3-{1-[4-(2-oxo-2-piperazin-1-yl-ethoxy)-phenyl]-1H-[1,2,3]triazol-4-yl}-1H-quinolin-2-one]	3.8	2.8
NC1CCN(C(=O)c2ccc(-n3cc(-c4cc5cc(F)c(F)cc5[nH]c4=O)nn3)cc2)CC1 [A143, 3-{1-[4-(4-amino-piperidine-1-carbonyl)-phenyl]-1H-[1,2,3]triazol-4-yl}-6,7-difluoro-1H-quinolin-2-one]	19	310
NC1CCN(C(=O)c2ccc(-n3cc(-c4cc5cc(F)ccc5[nH]c4=O)nn3)cc2)CC1 [A144, 3-{1-[4-(4-amino-piperidine-1-carbonyl)-phenyl]-1H-[1,2,3]triazol-4-yl}-6-fluoro-1H-quinolin-2-one]	12	170
O=C1CNCCN1c1ccc(-n2cc(-c3cc4cc(F)c(F)cc4[nH]c3=O)nn2)cc1 [A145, 6,7-difluoro-3-{1-[4-(2-oxo-piperazin-1-yl)-phenyl]-1H-[1,2,3]triazol-4-yl}-1H-quinolin-2-one]	22	180

More lines, now with the values ahead:

IC50 [1] [nM]	IC50 [2] [nM]	SMILES
40	16	O=C(c1ccc(-n2cc(-c3cc4cccnc4[nH]c3=O)nn2)cc1)N1CCNCC1 [A121, 3-{1-[4-(piperazine-1-carbonyl)-phenyl]-1H-[1,2,3]triazol-4-yl}-1H-[1,8]naphthyridin-2-one]
73	5	O=C(c1ccc(-n2cc(-c3cc4cc(F)cnc4[nH]c3=O)nn2)cc1)N1CCNCC1 [A122, 6-fluoro-3-{1-[4-(piperazine-1-carbonyl)-phenyl]-1H-[1,2,3]triazol-4-yl}-1H-[1,8]naphthyridin-2-one]
5	1	O=C(c1ccc(-n2cc(-c3cc4cc(Cl)ccc4[nH]c3=O)nn2)cc1)N1CCNCC1 [A123, 6-chloro-3-{1-[4-(piperazine-1-carbonyl)-phenyl]-1H-[1,2,3]triazol-4-yl}-1H-quinolin-2-one]
34	6	O=C(c1cccc(-n2cc(-c3cc4cc(F)ccc4[nH]c3=O)nn2)c1)N1CCNCC1 [A125, 6-fluoro-3-{1-[3-(piperazine-1-carbonyl)-phenyl]-1H-[1,2,3]triazol-4-yl}-1H-quinolin-2-one]
19	42	O=C(c1ccc(-n2cc(-c3cc4ccc(Cl)cc4[nH]c3=O)nn2)cc1)N1CCNCC1 [A126, 7-chloro-3-{1-[4-(piperazine-1-carbonyl)-phenyl]-1H-[1,2,3]triazol-4-yl}-1H-quinolin-2-one]
38	79	O=C(c1ccc(-n2cc(-c3cc4c(F)c(F)ccc4[nH]c3=O)nn2)cc1)N1CCNCC1 [A127, 5,6-difluoro-3-{1-[4-(piperazine-1-carbonyl)-phenyl]-1H-[1,2,3]triazol-4-yl}-1H-quinolin-2-one]
41	9.7	O=C(c1ccc(-n2cc(-c3cc4cc(F)c(F)cc4[nH]c3=O)nn2)cc1)N1CCNCC1 [A128, 6,7-difluoro-3-{1-[4-(piperazine-1-carbonyl)-phenyl]-1H-[1,2,3]triazol-4-yl}-1H-quinolin-2-one]
40	42	Cc1ccc2[nH]c(=O)c(-c3cn(-c4ccc(C(=O)N5CCNCC5)cc4)nn3)cc2c1 [A137, 6-methyl-3-{1-[4-(piperazine-1-carbonyl)-phenyl]-1H-[1,2,3]triazol-4-yl}-1H-quinolin-2-one]
14	28	O=C(COc1ccc(-n2cc(-c3cc4cc(F)c(F)cc4[nH]c3=O)nn2)cc1)N1CCNCC1 [A140, 6,7-difluoro-3-{1-[4-(2-oxo-2-piperazin-1-yl-ethoxy)-phenyl]-1H-[1,2,3]triazol-4-yl}-1H-quinolin-2-one]
280	2800	O=C(c1ccc(-n2cc(-c3cc4ccc(C(F)(F)F)cc4[nH]c3=O)nn2)cc1)N1CCNCC1 [A142, 3-{1-[4-(piperazine-1-carbonyl)-phenyl]-1H-[1,2,3]triazol-4-yl}-7-trifluoromethyl-1H-quinolin-2-one]
